# Experimental data as given in patent publication US8802665B2, “Pyrrolidine derivatives” (Hoffman-La Roche Inc., priority 2012, dated 2014).
# Molecular target: human Cat S (Homo sapiens (Human), UniProt P25774)
# Assay: Cathepsin enzyme inhibition assay (fluorogenic peptide substrate cleavage)
# Assay type: biochemical
# Conditions: human Cathepsin S 1 nM, substrate Z-Val-Val-Arg-AMC 20 μM, pH 6.5; read-out: Ic50 CatS: human
# human Cat S, sequence (P25774 115-331): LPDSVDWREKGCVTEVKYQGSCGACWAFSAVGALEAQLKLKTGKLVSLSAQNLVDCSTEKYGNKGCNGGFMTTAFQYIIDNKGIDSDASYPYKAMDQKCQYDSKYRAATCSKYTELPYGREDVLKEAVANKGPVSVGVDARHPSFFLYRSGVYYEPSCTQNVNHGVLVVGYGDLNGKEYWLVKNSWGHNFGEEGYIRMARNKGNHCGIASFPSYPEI
row,SMILES,IC50 [nM]
1,"Cc1ccc(S(=O)(=O)[C@@H]2C[C@@H](C(=O)NC3(C#N)CC3)N(C(=O)C3(N4CCCCC4)CC3)C2)cc1 [Example 44, (2S,4R)-N-(1-Cyanocyclopropyl)-1-(1-(piperidin-1-yl)cyclopropanecarbonyl)-4-tosylpyrrolidine-2-carboxamide]",0.4
2,"N#CC1(NC(=O)[C@@H]2C[C@@H](S(=O)(=O)c3cccc(C(F)(F)F)c3)CN2C(=O)C2(N3CCCCC3)CC2)CC1 [Example 46, (2S,4R)-N-(1-Cyanocyclopropyl)-1-(1-(piperidin-1-yl)cyclopropanecarbonyl)-4-(3-(trifluoromethyl)phenylsulfonyl)pyrrolidine-2-carboxamide]",0.4
3,"N#CC1(NC(=O)[C@@H]2C[C@@H](S(=O)(=O)c3ccc(Cl)cc3)CN2C(=O)C2(N3CCCCC3)CC2)CC1 [Example 47, (2S,4R)-4-(4-Chlorophenylsulfonyl)-N-(1-cyanocyclopropyl)-1-(1-(piperidin-1-yl)cyclopropanecarbonyl)pyrrolidine-2-carboxamide]",0.8

# Next, values leading:
row,IC50 [nM],SMILES
1,0.3,"N#CC1(NC(=O)[C@@H]2C[C@@H](S(=O)(=O)c3cccc(Cl)c3)CN2C(=O)C2(N3CCCCC3)CC2)CC1 [Example 43, (2S,4R)-4-(3-Chlorophenylsulfonyl)-N-(1-cyanocyclopropyl)-1-(1-(piperidin-1-yl)cyclopropanecarbonyl)pyrrolidine-2-carboxamide]"
2,0.8,"N#CC1(NC(=O)[C@@H]2C[C@@H](S(=O)(=O)c3ccccc3OC(F)(F)F)CN2C(=O)C2(N3CCCCC3)CC2)CC1 [Example 45, (2S,4R)-N-(1-Cyanocyclopropyl)-1-(1-(piperidin-1-yl)cyclopropanecarbonyl)-4-(2-(trifluoromethoxy)phenylsulfonyl)pyrrolidine-2-carboxamide]"
3,2.3,"CC1(C)CCCN(C2(C(=O)N3C[C@H](S(=O)(=O)c4ccccc4Cl)C[C@H]3C(=O)NC3(C#N)CC3)CC2)C1 [Example 48, (2S,4R)-4-(2-Chlorophenylsulfonyl)-N-(1-cyanocyclopropyl)-1-(1-(3,3-dimethylpiperidin-1-yl)cyclopropanecarbonyl)pyrrolidine-2-carboxamide]"
